Assays:
Xanthi-nc tobacco [1] = assay: Potentiation rating of Aatrex Nine-O (atrazine) herbicidal activity on Xanthi-nc tobacco relative to equimolar salicylic acid; type: in vivo, Nicotiana tabacum (tobacco); set-up: Potentiation Rating: key: 0 = no potentiation; 1 = potentiation less than equimolar SA; 2 = potentiation statistically equal to equimolar SA; 3 = potentiation statistically greater than equimolar SA; settings: for Potentiation of the herbicidal activity of atrazine compared with salicylic acid (in words): tobacco
Text: (§1) In all examples, deionized ultra-pure water was used in preparing solutions. Spray solutions were used as soon as possible after mixing.
(§2) In all herbicide applications, plants were sprayed with a sufficient volume to insure good coverage, to the point of runoff of the spray solution. […] For all treatments containing both an herbicide and a salicylate or SAR inducer, these materials were mixed and applied in a single spray solution (commonly known as a tank mix). After spraying, plants were moved to the greenhouse and arranged in randomized complete blocks. Plants were evaluated for herbicidal effects (phytotoxicity) after spraying by assessing damage according to percent leaf area affected. All the data were subject to an analysis of variance, and the mean separations were determined with Duncan's multiple range test at α=0.05.

Xanthi-nc tobacco [2] = assay: Herbicidal activity (phytotoxicity, percent leaf area affected) of foliar sprays on Xanthi-nc tobacco; type: in vivo, Nicotiana tabacum (tobacco); settings: for Phytotoxicity at 4 days: percent leaf area affected: alone or + NaSA 800 ppm
Text: as §1, §2

[3] = salicylic acid or SAR inducers with Aatrex Nine-O (atrazine), compared with equimolar SA
[4] = salicylates, picolinates and benzoates at 2 mM with Aatrex Nine-O (atrazine)
[5] = acibenzolar-S-methyl 935 ppm, alone or + atrazine (Aatrex Nine-O) 100 ppm
[6] = atrazine (Aatrex Nine-O) 100 ppm, NaSA 800 ppm, acibenzolar-S-methyl 187 ppm, alone or tank-mixed as labelled

SMILES | Potentiation of the herbicidal activity of atrazine compared with salicylic acid (in words) (Xanthi-nc tobacco [1]) | Potentiation Rating (Xanthi-nc tobacco [1]; [4]) | other results
O=C(O)c1cc(Cl)nc(Cl)c1 [2,6-Dichloroisonicotinic acid] | greater potentiation than equimolar salicylic acid |  | Potentiation Rating (Xanthi-nc tobacco [1]; [3]): 3
O=C(O)c1cc(Br)cc(Br)c1O [3,5-Dibromosalicylic acid] | as active as salicylic acid | 2 | 
O=C(O)c1cc(Cl)cc(Cl)c1O [3,5-Dichlorosalicylic acid] | greater potentiation than equimolar salicylic acid |  | Potentiation Rating (Xanthi-nc tobacco [1]; [3]): 3
O=C(O)c1cc(F)cc(F)c1O [3,5-Difluorosalicylic acid] | greater potentiation than salicylic acid | 3 | 
O=C(O)c1cccc(Cl)c1O [3-Chlorosalicylic acid] | greater potentiation than salicylic acid | 3 | 
O=C(O)c1cccc(F)c1O [3-Fluorosalicylic acid] | greater potentiation than salicylic acid | 3 | 
O=C(O)c1ncccc1O [3-Hydroxypicolinic acid] |  | 3 | 
COc1cccc(C(=O)O)c1O [3-Methoxysalicylic acid] | as active as salicylic acid | 2 | 
Cc1cccc(C(=O)O)c1O [3-Methylsalicylic acid] | no potentiation | 0 | 
O=C(O)c1cccc([N+](=O)[O-])c1O [3-Nitrosalicylic acid] | as active as salicylic acid | 2 | 
O=C(O)c1ccc(Cl)cc1O [4-Chlorosalicylic acid] | greater potentiation than equimolar salicylic acid |  | Potentiation Rating (Xanthi-nc tobacco [1]; [3]): 3
O=C(O)c1ccc(F)cc1O [4-Fluorosalicylic acid] | greater potentiation than salicylic acid | 3 | 
Cc1ccc(C(=O)O)c(O)c1 [4-Methylsalicylic acid] | no potentiation | 0 | 
O=C(O)c1cc(Br)ccc1O [5-Bromosalicylic acid] | as active as salicylic acid | 2 | 
O=C(O)c1cc(Cl)ccc1O [5-Chlorosalicylic acid] | greater potentiation than equimolar salicylic acid |  | Potentiation Rating (Xanthi-nc tobacco [1]; [3]): 3
O=C(O)c1cc(F)ccc1O [5-Fluorosalicylic acid] | greater potentiation than salicylic acid | 3 | 
Cc1ccc(O)c(C(=O)O)c1 [5-Methylsalicylic acid] |  | 0 | 
O=C(O)c1cc([N+](=O)[O-])ccc1O [5-Nitrosalicylic acid] | as active as salicylic acid | 2 | 
O=C(O)c1c(O)cccc1F [6-Fluorosalicylic acid] | as active as salicylic acid | 2 | 
Cc1cccc(O)c1C(=O)O [6-Methylsalicylic acid] | no potentiation | 0 | 
CSC(=O)c1cccc2nnsc12 [Acibenzolar-S-methyl, 1,2,3-benzothiadiazole-7-carbothioic acid S-methyl ester] | greater potentiation than equimolar salicylic acid |  | Potentiation Rating (Xanthi-nc tobacco [1]; [3]): 3; Phytotoxicity at 2 days: percent leaf area affected (Xanthi-nc tobacco [2]; [5]): 0 A percent; Phytotoxicity at 2 days: percent leaf area affected (Xanthi-nc tobacco [2]; [6]): 0 A percent; Phytotoxicity at 3 days: percent leaf area affected (Xanthi-nc tobacco [2]; [5]): 0 A percent; Phytotoxicity at 3 days: percent leaf area affected (Xanthi-nc tobacco [2]; [6]): 0 A percent; Phytotoxicity at 7 days: percent leaf area affected (Xanthi-nc tobacco [2]; [5]): 0.6 A percent; Phytotoxicity at 7 days: percent leaf area affected (Xanthi-nc tobacco [2]; [6]): 0 A percent; Effect of Actigard on atrazine activity (in words) (Xanthi-nc tobacco [2]; tobacco): dose-dependent acceleration of atrazine activity
CC(C)N1C(=O)c2ccccc2NS1(=O)=O [Bentazon, 3-(1-methylethyl)-1H-2,1,3-benzothiadiazin-4(3H)-one 2,2-dioxide] |  |  | Phytotoxicity at 4 days: percent leaf area affected (Xanthi-nc tobacco [2]; bentazon (Basagran) 100 ppm): 10 A percent; Phytotoxicity at 4 days: percent leaf area affected (Xanthi-nc tobacco [2]; bentazon (Basagran) 250 ppm): 32.5 B percent; Phytotoxicity at 4 days: percent leaf area affected (Xanthi-nc tobacco [2]; bentazon (Basagran) 500 ppm): 72.5 CD percent
C=CCOC1=NS(=O)(=O)c2ccccc21 [Probenazole] | greater potentiation than equimolar salicylic acid |  | 
O=C(O)c1ccccc1O [Salicylic acid, salicylic acid] |  | 2 | Potentiation Rating (Xanthi-nc tobacco [1]; [3]): 2
O=C([O-])c1ccccc1.[Na+] [Sodium benzoate] | no potentiation | 0 | 
CCOC(=O)C(C)OC(=O)c1cc(Oc2ccc(C(F)(F)F)cc2Cl)ccc1[N+](=O)[O-] (centres unmarked) [lactofen] | greater potentiation than equimolar salicylic acid |  | 
